Where “and” joins values, the source holds several entries; their conditions need not be identical. Equal values may be shown once. Entries after “also recorded” stand apart in the source; their conditions may differ.
Legend:
[1] = tested on: human islet-derived 1.1B4 cells; test: Acute static incubation, insulin secretion by radioimmunoassay, 1.1B4 cells; type: cell-based; details: for increase of insulin secretion: at 5.6 mmol/l glucose; for increase of the effect on raising glucose from 5.6 mmol/l to 11.1 mmol/l: 11.1 vs 5.6 mmol/l glucose
Description: (§1) Acute static incubations at 37° C. were performed using monolayers of insulin-secreting cells. […] Approximately 2.5×10^5 cells were then seeded in each well of 24-well multiplates (Iwaki Glass, Japan). […] The cells were incubated at 37° C. for 40 minutes, after which the buffer was removed and replaced with 0.5 ml KRBB test buffer. […] After 60 min incubation at 37° C., a 450 μl aliquot of KRBB test buffer was removed from each well into 2 ml polypropylene tube (Lip Plastics, England) and centrifuged at 900 rpm for 5 minutes at 4° C. The supernatant was then collected from each tube and 200 μl aliquots were then stored at −20° C. for subsequent insulin determination by radioimmunoassay.
(§2) Human insulin standards were prepared over a range of 2-fold serial dilutions from 5.0 ng/ml to 0.009 ng/ml using Human insulin standard (Sigma Chemical, UK). […] This antiserum was specificaly selected for high affinity with human insulin standard.
(§3) After a further 24 hours incubation at 4° C., 1 ml of a 5% (w/v) charcoal coated with 1:10 dextran T-70 in sodium phosphate buffer (40 mmol/1, pH 7.4) was added to each tube. […] Counts bound to antibody (average total counts minus counts bound to charcoal) are inversely proportional to the concentration of insulin in the standard or unknown sample. The unknown concentration was determined by means of the standard curve, constructed from the known […] insulin standard using a spline curve fitting algorithim.

PANC-1 cells [2] = test: Glucose oxidation from D-[U-14C]glucose, PANC-1 cells; type: cell-based, human; details: 2 mmol/l 5-thioglucose, tested at 1.1 and 16.7 mmol/l glucose
Description: (§4) A modification of the method developed by Keen et al. (1963) was used to determine oxidative glucose metabolism to CO2. In principle, the method involves incubation of cells in specially designed glass cups suspended inside standard counting vials with an airtight rubber stopper. A disc of filter paper (Whatman No. 1) was placed on the base of the counting vial. For each sample, 2.0×10^5 cells were incubated in the presence of either 1.1, 5.6, 11.1, 16.7 mmol/l glucose and D-[U-^14C] glucose to give a final concentration of […] (40 μl total volume). Effect of 2 mmol/l 5-thioglucose were also tested in 1.1 and 16.7 mmol/l glucose Blanks were set up where the cells were omitted and replaced with KRBB to give a final concentration of either 1.1 or 16.7 mmol/l glucose. Standards consisted of ^14C-labelled glucose (0.5 μCi) added to the filter paper at the base of the counting vial. The glass vials were sealed with the rubber caps and placed at 37° C. for one hour. The reaction was stopped by the addition of 0.2M HCl ([…]) injected through the rubber cap directly into the centre well using a Hamilton syringe. Phenylethylamine (PEA) was added (100 μl) through the sealed lid onto the filter paper at the base of the vial. Care was taken to avoid contamination of the centre well with PEA. […] Vials were capped and ^14C-glucose labelled radioactivity determined by scintillation counter.

PANC-1 cells [3] = test: Glucose utilisation from [5-3H]glucose, PANC-1 cells; type: cell-based, human; details: 2 mmol/l 5-thioglucose, this concentration = 16.7 mmol/l glucose
Description: (§5) Experiments were performed in specially designed glass cups suspended inside standard counting vials with an airtight stopper. For each sample, 2.0×10^5 cells were incubated in the presence of either 1.1, 5.6, 11.1 or 16.7 mmol/l glucose and D-[5 ^3H] glucose to give a final concentration of 0.25 μCi (40 μl total volume) Effects of 2 mmol/l 5-thioglucose were also tested in 1.1 and 16.7 mmol/l glucose. Blanks were set up where the cells were omitted and replaced with KRBB to give a final concentration of either 1.1 or 16.7 mmol/l glucose. Standards consisted of D-[5^−3H] glucose (0.5 μCi) added to the base of the counting vial. The glass vials were sealed with the rubber caps and placed at 37° C. for one hour. The reaction was stopped by the addition of 0.2M HCl (50 μl) injected through the rubber cap directly into the centre well using a Hamilton syringe. Sterile deionized water was added (500 μl) through the sealed lid into the base of the vial. Vials were then placed at 37° C. for a 15 hour. The rubber caps and centre wells were removed and 5 ml of liquid scintillation fluid (BDH) added to each vial on top of the filter paper. Vials were capped and ^3H-glucose labelled radioactivity determined by scintillation counter.

[4] = tested on: human islet-derived 1.2B4 cells; test: Acute static incubation, insulin secretion by radioimmunoassay, 1.2B4 cells; type: cell-based
Description: as §1, §2, §3

1.1B4 cells [5] = test: Glucose oxidation from D-[U-14C]glucose, 1.1B4 cells; type: cell-based, human; details: 2 mmol/l 5-thioglucose
Description: as §4

1.2B4 cells [6] = test: Glucose utilisation from [5-3H]glucose, 1.2B4 cells; type: cell-based, human; details: 2 mmol/l 5-thioglucose, tested at 1.1 and 16.7 mmol/l glucose
Description: as §5

[7] = tested on: human islet-derived 1.1E7 cells; test: Acute static incubation, insulin secretion by radioimmunoassay, 1.1E7 cells; type: cell-based; details: for threshold glucose concentration for stimulation of insulin release in the presence of the agent: IBMX or 2 mmol/l 5-thioglucose included
Description: as §1, §2, §3

Hup-T3 cells [8] = test: Glucose oxidation from D-[U-14C]glucose, Hup-T3 cells; type: cell-based, human; details: 2 mmol/l 5-thioglucose, tested at 1.1 and 16.7 mmol/l glucose
Description: as §4

Hup-T3 cells [9] = test: Glucose utilisation from [5-3H]glucose, Hup-T3 cells; type: cell-based, human; details: 2 mmol/l 5-thioglucose, tested at 1.1 and 16.7 mmol/l glucose
Description: as §5

[10] = tested on: human islet-derived 1.4E7 cells; test: Acute static incubation, insulin secretion by radioimmunoassay, 1.4E7 cells; type: cell-based
Description: as §1, §2, §3

1.1E7 cells [11] = test: Glucose utilisation from [5-3H]glucose, 1.1E7 cells; type: cell-based, human; details: 2 mmol/l 5-thioglucose, tested at 1.1 and 16.7 mmol/l glucose
Description: as §5

1.4E7 cells [12] = test: Glucose oxidation from D-[U-14C]glucose, 1.4E7 cells; type: cell-based, human; details: 2 mmol/l 5-thioglucose
Description: as §4

1.2B4 cells [13] = test: Glucose oxidation from D-[U-14C]glucose, 1.2B4 cells; type: cell-based, human; details: 2 mmol/l 5-thioglucose, tested at 1.1 and 16.7 mmol/l glucose
Description: as §4

1.1B4 cells [14] = test: Glucose utilisation from [5-3H]glucose, 1.1B4 cells; type: cell-based, human; details: 2 mmol/l 5-thioglucose
Description: as §5

[15] = tested on: 1.1B4, 1.1E7, 1.4E7 and 1.2B4 cells; test: Acute static incubation, insulin secretion, statements pooled over all four cell lines; type: cell-based, human; details: for insulin release from the novel cell lines: each of the novel cell lines, glucose concentration not stated; for insulin release at 11.1 mmol/l glucose: novel cells
Description: as §1, §2, §3

1.4E7 cells [16] = test: Glucose utilisation from [5-3H]glucose, 1.4E7 cells; type: cell-based, human; details: 2 mmol/l 5-thioglucose, tested at 1.1 and 16.7 mmol/l glucose
Description: as §5

1.1E7 cells [17] = test: Glucose oxidation from D-[U-14C]glucose, 1.1E7 cells; type: cell-based, human; details: 2 mmol/l 5-thioglucose
Description: as §4

[18] = 2 mmol/l 5-thioglucose, 0 to 11.1 mmol/l glucose
[19] = tested at 1.1 and 16.7 mmol/l glucose
[20] = all four cell lines, 16.7 mmol/l glucose
[21] = 200 μmol/ IBMX, glucose 0 to 16.7 mmol/l

## O=C[C@H](O)[C@@H](O)[C@H](O)[C@H](S)CO [5-thioglucose]
[1]; [18]
  lowering of insulin output by 5-thioglucose: 20-50% and 20 to 50%
PANC-1 cells [2]
  effect of 5-thioglucose on glucose oxidation: significant inhibition of oxidation at both 1.1 and 16.7 mmol/l
PANC-1 cells [3]
  effect of 5-thioglucose on glucose utilisation: inhibit utilisation only at this concentration
[4]; 2 mmol/l 5-thioglucose
  glucose-stimulated insulin release in the presence of 5-thioglucose: became apparent
[4]; [18]
  lowering of insulin output by 5-thioglucose: 20-50% and 20 to 50%
1.1B4 cells [5]
  ratio of glucose oxidation:glucose utilisation on addition of 5-thioglucose: significant increase in ratio
1.1B4 cells [5]; [19]
  effect of 5-thioglucose on glucose oxidation: inhibit the oxidation of glucose at both 1.1 mmol/l and 16.7 mmol/l glucose; also recorded: only marginally inhibited
1.2B4 cells [6]
  effect of 5-thioglucose on glucose utilisation: had no affect
[7]; [18]
  lowering of insulin output by 5-thioglucose: 20-50% and 20 to 50%
[7]
  threshold glucose concentration for stimulation of insulin release in the presence of the agent: 5.6 mmol/L
Hup-T3 cells [8]
  effect of 5-thioglucose on glucose oxidation: able to inhibit oxidation at both 1.1 and 16.7 mmol/l glucose
Hup-T3 cells [9]
  effect of 5-thioglucose on glucose utilisation: did not inhibit
[10]; 2 mmol/l 5-thioglucose
  effect of 5-thioglucose on insulin output and glucose responsiveness: least affected; also recorded: not affected
1.1E7 cells [11]
  effect of 5-thioglucose on glucose utilisation: only affected utilisation at 16.7 mmol/l
1.4E7 cells [12]
  ratio of glucose oxidation:glucose utilisation on addition of 5-thioglucose: significant increase in ratio
1.4E7 cells [12]; [19]
  effect of 5-thioglucose on glucose oxidation: clearly inhibiting oxidation at both 1.1 and 16.7
1.2B4 cells [13]
  effect of 5-thioglucose on glucose oxidation: inhibited oxidation at 16.7 mmol/l
1.1B4 cells [14]; 1.1 mmol/l glucose
  effect of 5-thioglucose on glucose utilisation: did not affect
1.1B4 cells [14]; 16.7 mmol/l glucose
  effect of 5-thioglucose on glucose utilisation: reduce utilisation
[15]; all four cell lines, 2 mmol/l 5-thioglucose
  effect of 5-thioglucose on responsiveness to increasing glucose concentrations: improved; also recorded: caused a shift
1.4E7 cells [16]
  effect of 5-thioglucose on glucose utilisation: unaffected
1.1E7 cells [17]
  ratio of glucose oxidation:glucose utilisation on addition of 5-thioglucose: significant increase in ratio

## CC1=NS(=O)(=O)c2cc(Cl)ccc2N1 [Diazoxide, diazoxide]
[15]; Homo sapiens, all four cell lines, 16.7 mmol/l glucose, diazoxide 400 μmol/l, EGTA in Ca2+-free buffer, read-out: inhibition of insulin release
  inhibition at 400 µM: 20 to 50%
[15]; [20]
  insulin output at 16.7 mmol/l glucose: significantly reduced

## O=C(O)CN(CCOCCOCCN(CC(=O)O)CC(=O)O)CC(=O)O [EGTA]
[15]; [20]
  insulin output at 16.7 mmol/l glucose: significantly inhibited

## [Cl-].[K+] [KCl]
[15]; all four cell lines, passage 40 vs 17
  secretory responsiveness at passage 40: maintain responsiveness
[15]
  insulin release from the novel cell lines: provoked insulin release

## CC(C)CC(=O)C(=O)O [KIC]
[4]
  insulin secretion at 11.1 mmol/l glucose: induced insulin secretion
[7]
  insulin secretory response at 11.1 mmol/l glucose compared with 5.6 mmol/l: significantly greater
[10]
  insulin secretion at 11.1 mmol/l glucose: induced insulin secretion
[15]
  insulin release at 11.1 mmol/l glucose: significant increases in insulin release

## C[C@H](N)C(=O)O [alanine, L-alanine]
[1]
  increase of insulin secretion: Significant effects
[4]
  insulin secretion at 11.1 mmol/l glucose: induced insulin secretion
[7]
  insulin secretory response at 11.1 mmol/l glucose compared with 5.6 mmol/l: significantly greater
[10]
  insulin secretion at 11.1 mmol/l glucose: induced insulin secretion
[15]
  insulin release at 11.1 mmol/l glucose: significant increases in insulin release

## N=C(N)NCCC[C@H](N)C(=O)O [arginine, L-arginine]
[1]
  increase of the effect on raising glucose from 5.6 mmol/l to 11.1 mmol/l: 17%
[7]
  insulin secretory response at 11.1 mmol/l glucose compared with 5.6 mmol/l: significantly greater
[15]; each cell line, 5.6 mmol/l glucose
  insulin secretion at non-stimulatory glucose: significantly stimulated
[15]
  insulin release at 11.1 mmol/l glucose: significant increases in insulin release

## COc1ccc(Cl)cc1C(=O)NCCc1ccc(S(=O)(=O)NC(=O)NC2CCCCC2)cc1 [glibenclamide]
[15]
  insulin release from the novel cell lines: provoked insulin release

## O=CC(O)CO (stereo not shown) [glyceraldehyde]
[15]
  insulin release from the novel cell lines: significantly stimulate

## CC(C)C[C@H](N)C(=O)O [leucine, L-leucine]
[1]
  increase of the effect on raising glucose from 5.6 mmol/l to 11.1 mmol/l: 30%
  increase of insulin secretion: Significant effects
[4]
  insulin secretion at 11.1 mmol/l glucose: induced insulin secretion
[7]
  insulin secretory response at 11.1 mmol/l glucose compared with 5.6 mmol/l: significantly greater
[10]
  insulin secretion at 11.1 mmol/l glucose: induced insulin secretion
[15]
  insulin release at 11.1 mmol/l glucose: significant increases in insulin release

## CCCCNC(=O)NS(=O)(=O)c1ccc(C)cc1 [tolbutamide]
[1]
  increase of the effect on raising glucose from 5.6 mmol/l to 11.1 mmol/l: 20%
[15]
  insulin release from the novel cell lines: provoked insulin release

## COc1ccc(CCN(C)CCCC(C#N)(c2ccc(OC)c(OC)c2)C(C)C)cc1OC (stereo not shown) [verapamil]
[15]; [20]
  insulin output at 16.7 mmol/l glucose: similarly reduced

## isobutylmethylxanthine [IBMX]
[1]; [21]
  increase of secretory response to glucose by IBMX: 20 to 100% and 20 to 60%
  stimulation of secretory response with IBMX: 1.3-2 fold
[1]; absence of glucose
  insulin secretion with IBMX in the absence of glucose: modestly enhanced
[4]; 200 μmol/ IBMX
  effect of IBMX on insulin released: did not significantly affect; also recorded: insensitive
[7]; [21]
  increase of secretory response to glucose by IBMX: 20 to 100% and 20 to 60%
  stimulation of secretory response with IBMX: 1.3-2 fold
[7]
  threshold glucose concentration for stimulation of insulin release in the presence of the agent: 5.6 mmol/L
[10]; [21]
  increase of secretory response to glucose by IBMX: 20 to 100% and 20 to 60%
  stimulation of secretory response with IBMX: 1.3-2 fold
[10]; absence of glucose
  insulin secretion with IBMX in the absence of glucose: modestly enhanced
